Measured values from US20240293551A1, “USE OF ST-TYPE LIPID COMPOUNDS IN PREPARATION OF NUCLEIC ACID DELIVERY REAGENT AND RELATED PRODUCT” (INSTITUTE OF BASIC MEDICAL SCIENCES CHINESE ACADEMY OF …, priority 2021, published 2024).

Tested on: PGY-sRNA-26
Assay: In vivo delivery study of lipid-nucleic acid mixture (oral gavage, RT-qPCR of PGY-sRNA-26 in tissues)
Set-up: species or system mouse
Details: for oral delivery of single-stranded sRNA nucleic acids into mouse intestinal tissue: intestine; for delivery efficacy over each tissue and blood tested (broad-spectrum delivery): all tissues and blood tested
Summary of the method: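 C57BL/6 male mice (~6 weeks, 20-24 g), fasted 12 h, were gavaged with 10 nmol 3′-methylated PGY-sRNA-26 mixed with 100 μg lipid (heated 90° C. 15 min), versus saline or free sRNA (n=4 each). After 12 h, blood and tissues were Trizol-extracted; sRNA quantified by stem-loop RT-qPCR relative to U6.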

[1] = C57BL/6 mice, gavage, 100 μg lipid: 10 nmol PGY-sRNA-26, 12 hours, blood
[2] = C57BL/6 mice, gavage, 100 μg lipid: 10 nmol PGY-sRNA-26, 12 hours
[3] = C57BL/6 mice, gavage, 100 μg lipid: 10 nmol PGY-sRNA-26, 12 hours, femur

SMILES: C[C@H](CCC(=O)O)[C@H]1CC[C@H]2[C@@H]3CC[C@@H]4C[C@H](O)CC[C@]4(C)[C@H]3CC[C@]12C [Lipid 577]
- oral delivery of single-stranded sRNA nucleic acids into mouse blood [1]: can effectively orally deliver
- oral delivery of single-stranded sRNA nucleic acids into mouse brain tissue [2]: can effectively orally deliver
- oral delivery of single-stranded sRNA nucleic acids into mouse femur [3]: can effectively orally deliver
- oral delivery of single-stranded sRNA nucleic acids into mouse heart tissue [2]: can effectively orally deliver
- oral delivery of single-stranded sRNA nucleic acids into mouse intestinal tissue [2]: can effectively orally deliver
- oral delivery of single-stranded sRNA nucleic acids into mouse kidney tissue [2]: can effectively orally deliver
- oral delivery of single-stranded sRNA nucleic acids into mouse liver tissue [2]: can effectively orally deliver
- oral delivery of single-stranded sRNA nucleic acids into mouse lung tissue [2]: can effectively orally deliver
- oral delivery of single-stranded sRNA nucleic acids into mouse stomach tissue [2]: can effectively orally deliver

SMILES: C[C@]12CC[C@H]3[C@@H](CCC4=CC(=O)CC[C@@]43C)[C@@H]1CC[C@@H]2O [Lipid 579]
- oral delivery of single-stranded sRNA nucleic acids into mouse blood (mouse, in vivo, po): can effectively orally deliver
- oral delivery of single-stranded sRNA nucleic acids into mouse femur (mouse, in vivo, po): can effectively orally deliver

SMILES: C[C@H](CCC(=O)O)[C@H]1CC[C@H]2[C@@H]3[C@H](O)C[C@@H]4C[C@H](O)CC[C@]4(C)[C@H]3CC[C@]12C [Lipid 580]
- oral delivery of single-stranded sRNA nucleic acids into mouse blood [1]: can effectively orally deliver
- oral delivery of single-stranded sRNA nucleic acids into mouse brain tissue [2]: can effectively orally deliver
- oral delivery of single-stranded sRNA nucleic acids into mouse femur [3]: can effectively orally deliver
- oral delivery of single-stranded sRNA nucleic acids into mouse heart tissue [2]: can effectively orally deliver
- oral delivery of single-stranded sRNA nucleic acids into mouse intestinal tissue [2]: can effectively orally deliver
- oral delivery of single-stranded sRNA nucleic acids into mouse liver tissue [2]: can effectively orally deliver
- oral delivery of single-stranded sRNA nucleic acids into mouse lung tissue [2]: can effectively orally deliver
- oral delivery of single-stranded sRNA nucleic acids into mouse spleen tissue [2]: can effectively orally deliver
- oral delivery of single-stranded sRNA nucleic acids into mouse stomach tissue [2]: can effectively orally deliver

SMILES: C[C@H](CCC(=O)O)[C@H]1CC[C@H]2[C@@H]3CC[C@@H]4C[C@H](O)CC[C@]4(C)[C@H]3C[C@H](O)[C@]12C [Lipid 581]
- delivery efficacy over each tissue and blood tested (broad-spectrum delivery) [2]: exhibited the best delivery efficacy
- oral delivery of single-stranded sRNA nucleic acids into mouse blood [1]: can effectively orally deliver
- oral delivery of single-stranded sRNA nucleic acids into mouse brain tissue [2]: can effectively orally deliver
- oral delivery of single-stranded sRNA nucleic acids into mouse femur [3]: can effectively orally deliver
- oral delivery of single-stranded sRNA nucleic acids into mouse heart tissue [2]: can effectively orally deliver
- oral delivery of single-stranded sRNA nucleic acids into mouse intestinal tissue [2]: can effectively orally deliver
- oral delivery of single-stranded sRNA nucleic acids into mouse kidney tissue [2]: can effectively orally deliver
- oral delivery of single-stranded sRNA nucleic acids into mouse liver tissue [2]: can effectively orally deliver
- oral delivery of single-stranded sRNA nucleic acids into mouse lung tissue [2]: can effectively orally deliver
- oral delivery of single-stranded sRNA nucleic acids into mouse spleen tissue [2]: can effectively orally deliver
- oral delivery of single-stranded sRNA nucleic acids into mouse stomach tissue [2]: can effectively orally deliver

SMILES: CC(=O)OCC(=O)[C@@]1(O)CC[C@H]2[C@@H]3CCC4=CC(=O)CC[C@]4(C)[C@H]3[C@@H](O)C[C@@]21C [Lipid 582]
- delivery efficacy over each tissue and blood tested (broad-spectrum delivery) [2]: exhibited the best delivery efficacy
- oral delivery of single-stranded sRNA nucleic acids into mouse blood [1]: can effectively orally deliver
- oral delivery of single-stranded sRNA nucleic acids into mouse brain tissue [2]: can effectively orally deliver
- oral delivery of single-stranded sRNA nucleic acids into mouse femur [3]: can effectively orally deliver
- oral delivery of single-stranded sRNA nucleic acids into mouse heart tissue [2]: can effectively orally deliver
- oral delivery of single-stranded sRNA nucleic acids into mouse intestinal tissue [2]: can effectively orally deliver
- oral delivery of single-stranded sRNA nucleic acids into mouse kidney tissue [2]: can effectively orally deliver
- oral delivery of single-stranded sRNA nucleic acids into mouse liver tissue [2]: can effectively orally deliver
- oral delivery of single-stranded sRNA nucleic acids into mouse lung tissue [2]: can effectively orally deliver
- oral delivery of single-stranded sRNA nucleic acids into mouse spleen tissue [2]: can effectively orally deliver
- oral delivery of single-stranded sRNA nucleic acids into mouse stomach tissue [2]: can effectively orally deliver

SMILES: CC(C)CCC[C@@H](C)[C@H]1CC[C@H]2[C@@H]3CC[C@H]4C[C@@H](O)CC[C@]4(C)[C@H]3CC[C@]12C [Lipid 583, 5α-cholestan-3β-ol (3S,5S,8R,9S,10S,13R,14S,17R)-10,13-dimethyl-17-[(2R)-6-methylheptan-2-yl]-2,3,4,5,6,7,8,9,11,12,14,15,16,17-tetradecahydro-1H-cyclopenta[a]phenanthren-3-ol]
- oral delivery of single-stranded sRNA nucleic acids into mouse blood [1]: can effectively orally deliver
- oral delivery of single-stranded sRNA nucleic acids into mouse brain tissue [2]: can effectively orally deliver
- oral delivery of single-stranded sRNA nucleic acids into mouse femur [3]: can effectively orally deliver
- oral delivery of single-stranded sRNA nucleic acids into mouse heart tissue [2]: can effectively orally deliver
- oral delivery of single-stranded sRNA nucleic acids into mouse intestinal tissue [2]: can effectively orally deliver
- oral delivery of single-stranded sRNA nucleic acids into mouse liver tissue [2]: can effectively orally deliver
- oral delivery of single-stranded sRNA nucleic acids into mouse lung tissue [2]: can effectively orally deliver
- oral delivery of single-stranded sRNA nucleic acids into mouse stomach tissue [2]: can effectively orally deliver

SMILES: CCCCCCCCCCCCCCCCCC(=O)O[C@H]1CC[C@@]2(C)C(=CC[C@H]3[C@@H]4CC[C@H]([C@H](C)CCCC(C)C)[C@@]4(C)CC[C@@H]32)C1 [Lipid 584]
- oral delivery of single-stranded sRNA nucleic acids into mouse blood [1]: can effectively orally deliver
- oral delivery of single-stranded sRNA nucleic acids into mouse brain tissue [2]: can effectively orally deliver
- oral delivery of single-stranded sRNA nucleic acids into mouse femur [3]: can effectively orally deliver
- oral delivery of single-stranded sRNA nucleic acids into mouse heart tissue [2]: can effectively orally deliver
- oral delivery of single-stranded sRNA nucleic acids into mouse intestinal tissue [2]: can effectively orally deliver
- oral delivery of single-stranded sRNA nucleic acids into mouse liver tissue [2]: can effectively orally deliver
- oral delivery of single-stranded sRNA nucleic acids into mouse lung tissue [2]: can effectively orally deliver
- oral delivery of single-stranded sRNA nucleic acids into mouse spleen tissue [2]: can effectively orally deliver
- oral delivery of single-stranded sRNA nucleic acids into mouse stomach tissue [2]: can effectively orally deliver

SMILES: CC(=O)OCC(=O)[C@@]1(O)CC[C@H]2[C@@H]3CCC4=CC(=O)CC[C@]4(C)[C@H]3C(=O)C[C@@]21C [Lipid 585]
- oral delivery of single-stranded sRNA nucleic acids into mouse blood [1]: can effectively orally deliver
- oral delivery of single-stranded sRNA nucleic acids into mouse brain tissue [2]: can effectively orally deliver
- oral delivery of single-stranded sRNA nucleic acids into mouse femur [3]: can effectively orally deliver
- oral delivery of single-stranded sRNA nucleic acids into mouse heart tissue [2]: can effectively orally deliver
- oral delivery of single-stranded sRNA nucleic acids into mouse intestinal tissue [2]: can effectively orally deliver
- oral delivery of single-stranded sRNA nucleic acids into mouse kidney tissue [2]: can effectively orally deliver
- oral delivery of single-stranded sRNA nucleic acids into mouse liver tissue [2]: can effectively orally deliver
- oral delivery of single-stranded sRNA nucleic acids into mouse lung tissue [2]: can effectively orally deliver
- oral delivery of single-stranded sRNA nucleic acids into mouse spleen tissue [2]: can effectively orally deliver
- oral delivery of single-stranded sRNA nucleic acids into mouse stomach tissue [2]: can effectively orally deliver
